From ChEMBL document CHEMBL3259557, “Structure-activity relationships and colorimetric properties of specific probes for the putative cancer biomarker human arylamine N-acetyltransferase 1” (Bioorg Med Chem, 2014) come the findings set out here.

Tested on in the first data set: not listed separately
As to the kind of experiment: physchem. Conditions: buffered solution containing 5% DMSO.
`Cc1cc(C)cc(OC2=C(NS(=O)(=O)c3ccccc3)C(=O)c3ccccc3C2=O)c1`: the pKa at 100 µM was 5.

In the case of `O=C(NC1=C(c2ccoc2)C(=O)c2ccccc2C1=O)c1ccccc1`, the pKa at 100 µM is 12.1.

As to `O=C1C(NS(=O)(=O)c2ccccc2)=C(Oc2ccc(Br)cc2)C(=O)c2ccccc21`, the pKa at 100 µM amounted to 5.

`O=C1C(Nc2ccccc2)=C(NS(=O)(=O)c2ccccc2)C(=O)c2c1cccc2[N+](=O)[O-]`: the pKa at 100 µM amounted to 8.4.

`O=Cc1ccc(C2=C(NS(=O)(=O)c3ccccc3)C(=O)c3ccccc3C2=O)cc1` showed a pKa at 100 µM of 4.6.

Consider `O=C1C(NS(=O)(=O)c2ccccc2)=C(Oc2ccccc2)C(=O)c2ccccc21`, for which the pKa at 100 µM amounted to 5.

In turn, `COCCNC1=C(NS(=O)(=O)c2ccccc2)C(=O)c2ccccc2C1=O` returned a pKa at 100 µM of 9.8.

For the compound `Cc1cc(C)cc(NC2=C(NS(=O)(=O)c3ccc(F)cc3)C(=O)c3ccccc3C2=O)c1`, the pKa at 100 µM came out at 9.9.

`O=C1C(NS(=O)(=O)c2ccccc2)=C(c2ccco2)C(=O)c2ccccc21` showed a pKa at 100 µM of 5.1.

Turning to `Cc1cc(C)cc(NC2=C(NS(=O)(=O)c3c(F)cccc3F)C(=O)c3ccccc3C2=O)c1`, the pKa at 100 µM stood at 8.4.

The compound `Cc1cc(C)cc(NC2=C(NS(=O)(=O)C3CCCCC3)C(=O)c3ccccc3C2=O)c1` returned a pKa at 100 µM of 10.6.

For the compound `O=Cc1cccc(C2=C(NS(=O)(=O)c3ccccc3)C(=O)c3ccccc3C2=O)c1`, the pKa at 100 µM worked out at 5.

In turn, `Cc1cc(C)cc(NC2=C(NS(=O)(=O)c3ccccc3)C(=O)c3cccc([N+](=O)[O-])c3C2=O)c1` displayed a pKa at 100 µM of 8.2.

In turn, `Cc1cc(C)cc(NC2=C(NS(=O)(=O)c3ccccc3)C(=O)c3c(N)cccc3C2=O)c1` returned a pKa at 100 µM of 8.4.

Regarding `Cc1cc(C)cc(NC2=C(NS(=O)(=O)c3ccccc3)C(=O)c3c(cccc3[N+](=O)[O-])C2=O)c1`, the pKa at 100 µM is 8.6.

`Nc1cccc2c1C(=O)C(NS(=O)(=O)c1ccccc1)=C(Nc1ccccc1)C2=O` came in with a pKa at 100 µM of 8.2.

`O=C(Cc1ccccc1)NC1=C(c2ccoc2)C(=O)c2ccccc2C1=O` returned a pKa at 100 µM of 12.5.

For `O=C1C(NC2CCCC2)=C(NS(=O)(=O)c2ccccc2)C(=O)c2ccccc21`, the pKa at 100 µM worked out at 10.1.

Consider `Cc1cc(C)cc(NC2=C(NS(=O)(=O)c3ccccc3)C(=O)c3ccc([N+](=O)[O-])cc3C2=O)c1`, for which the pKa at 100 µM turned out to be 7.5.

Consider `Cc1ccc(S(=O)(=O)NC2=C(Nc3cc(C)cc(C)c3)C(=O)c3ccccc3C2=O)cc1`, for which the pKa at 100 µM came to 9.7.

With `O=C1C(NS(=O)(=O)c2ccccc2)=C(c2ccccc2Cl)C(=O)c2ccccc21`, the pKa at 100 µM came out at 4.9.

Take `O=C1C(Nc2ccccc2)=C(NS(=O)(=O)c2ccccc2)C(=O)c2ccccc21`: the pKa at 100 µM is 9.5.

For the compound `Cc1cc(C)cc(NC2=C(NS(=O)(=O)c3ccccc3)C(=O)c3cc([N+](=O)[O-])ccc3C2=O)c1`, the pKa at 100 µM is 8.

For the compound `O=C1C(NCc2ccccc2)=C(NS(=O)(=O)c2ccccc2)C(=O)c2ccccc21`, the pKa at 100 µM was 10.4.

`Cc1cc(C)cc(NC2=C(NS(C)(=O)=O)C(=O)c3ccccc3C2=O)c1` registered a pKa at 100 µM of 9.5.

For the compound `O=Cc1cccc(C2=C(NC(=O)Cc3ccccc3)C(=O)c3ccccc3C2=O)c1`, the pKa at 100 µM was 11.4.

In turn, `O=C1C(NS(=O)(=O)c2ccccc2)=C(c2cccc(Cl)c2)C(=O)c2ccccc21` returned a pKa at 100 µM of 4.5.

For `Cc1cc(C)cc(NC2=C(NS(=O)(=O)Cc3ccccc3)C(=O)c3ccccc3C2=O)c1`, the pKa at 100 µM is 10.

As for `Cc1cc(C)cc(NC2=C(NS(=O)(=O)c3ccccc3C)C(=O)c3ccccc3C2=O)c1`, the pKa at 100 µM turned out to be 9.3.

Regarding `Cc1cc(C)cc(NC2=C(NS(=O)(=O)c3cccc([N+](=O)[O-])c3)C(=O)c3ccccc3C2=O)c1`, the pKa at 100 µM came out at 8.6.

Regarding `O=C1C(Nc2ccc(Br)cc2)=C(NS(=O)(=O)c2ccccc2)C(=O)c2ccccc21`, the pKa at 100 µM amounted to 10.4.

As to `O=Cc1cccc(C2=C(NC(=O)c3ccccc3)C(=O)c3ccccc3C2=O)c1`, the pKa at 100 µM stood at 10.9.

Compound `O=C1C(NS(=O)(=O)c2ccccc2)=C(c2ccoc2)C(=O)c2ccccc21` had a pKa at 100 µM of 5.

Turning to `Cc1cc(C)cc(NC2=C(NS(=O)(=O)c3ccco3)C(=O)c3ccccc3C2=O)c1`, the pKa at 100 µM came to 8.3.

On to `O=C1C(NS(=O)(=O)c2ccccc2)=C(c2ccc(Cl)cc2)C(=O)c2ccccc21`, for which the pKa at 100 µM was 5.

For the compound `Cc1cc(C)cc(NC2=C(NS(=O)(=O)c3ccccc3[N+](=O)[O-])C(=O)c3ccccc3C2=O)c1`, the pKa at 100 µM worked out at 7.9.

In turn, `Cc1cc(C)cc(NC2=C(NS(=O)(=O)c3ccccc3)C(=O)c3ccccc3C2=O)c1` displayed a pKa at 100 µM of 9.2.

A further data set concerns the target T1, NAT2 (arylamine N-acetyltransferase 2) (Homo sapiens, UniProt P11245).
T1 sequence (P11245 whole entry): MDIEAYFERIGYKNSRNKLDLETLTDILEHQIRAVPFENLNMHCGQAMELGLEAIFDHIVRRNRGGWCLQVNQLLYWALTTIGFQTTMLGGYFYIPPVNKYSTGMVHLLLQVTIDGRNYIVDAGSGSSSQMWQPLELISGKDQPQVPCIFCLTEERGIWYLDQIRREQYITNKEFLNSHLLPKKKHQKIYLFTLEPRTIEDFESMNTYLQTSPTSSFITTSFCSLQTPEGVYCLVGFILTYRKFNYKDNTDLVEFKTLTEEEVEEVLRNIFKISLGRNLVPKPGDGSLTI
As to the kind of experiment: in vitro. As to conditions: probe arylamine and AcCoA.
As usually defined, the inhibition is the change of the read-out against control, counted positive when it falls. Higher therefore signals strong suppression. With `O=C(NC1=C(c2ccoc2)C(=O)c2ccccc2C1=O)c1ccccc1`, the inhibition at 30 µM was above 50%.

With `O=Cc1cccc(C2=C(NC(=O)c3ccccc3)C(=O)c3ccccc3C2=O)c1`, the inhibition at 30 µM was above 50%.

A further data set concerns the target T2, NAT1 (arylamine N-acetyltransferase 1) (Homo sapiens, UniProt P18440).
T2 sequence (P18440 whole entry): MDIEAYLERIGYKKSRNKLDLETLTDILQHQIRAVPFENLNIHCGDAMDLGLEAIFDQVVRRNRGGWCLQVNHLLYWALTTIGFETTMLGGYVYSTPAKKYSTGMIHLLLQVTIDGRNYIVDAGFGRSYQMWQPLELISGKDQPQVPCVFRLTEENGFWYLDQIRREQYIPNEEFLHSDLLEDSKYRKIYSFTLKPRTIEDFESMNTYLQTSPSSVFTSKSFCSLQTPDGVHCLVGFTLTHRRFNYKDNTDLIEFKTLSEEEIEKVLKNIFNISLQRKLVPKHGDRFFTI
Nature of the data set: in vitro. Conditions: ZR-75-1 cells, probe arylamine and AcCoA.
In turn, `Cc1cc(C)cc(NC2=C(NS(=O)(=O)c3ccc(F)cc3)C(=O)c3ccccc3C2=O)c1` displayed an inhibition at 1 µM above 50%.

Turning to `Cc1cc(C)cc(NC2=C(NS(=O)(=O)c3ccccc3)C(=O)c3c(N)cccc3C2=O)c1`, the inhibition at 1 µM was above 50%.

Compound `Cc1cc(C)cc(NC2=C(NS(=O)(=O)c3ccccc3)C(=O)c3cc(N)ccc3C2=O)c1` gave an inhibition at 1 µM above 50%.

Consider `Cc1cc(C)cc(NC2=C(NS(=O)(=O)c3ccccc3)C(=O)c3ccccc3C2=O)c1`, for which the inhibition at 1 µM was above 50%.
